# Assay results taken from US20220324835A1 (Nurix Therapeutics, Inc., priority 2018, published 2022).
# How the values were obtained:
# Assay type in all cases: cell-based
# [1] = system: primary human total T-cells; assay: T-cell activation assessed by cell proliferation (Cell Trace Violet)
# Procedure, shortened: (§1)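 Primary human T-cells (>95% CD3+, negative selection from PBMC) were pre-incubated with inhibitor (e.g. 10, 1.11, 0.123 μM; DMSO <0.1%) for 1 h at 37 °C. They were then stimulated 48 h with plate-bound OKT3 (coated at 10 μg/mL), alone or with 5 μg/mL soluble anti-CD28. Results are fold change over uninhibited, identically stimulated cells.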
# [2] = system: primary human total T-cells; assay: T-cell activation assessed by CD69 expression
# Procedure, shortened: as §1
# [3] = system: primary human total T-cells; assay: T-cell activation assessed by cytokine secretion (GM-CSF, IFNγ, TNFα)
# Procedure, shortened: as §1
# [4] = CD3/CD28 stimulation, CD4 T-cells, read-out: % CP (cell proliferation) (CD4)
# [5] = CD3/CD28 stimulation, CD8 T-cells, read-out: % CP (cell proliferation) (CD8)
# [6] = CD3 alone stimulation, CD8 T-cells, read-out: % CP (cell proliferation) (CD8)
# [7] = CD3/CD28 stimulation, CD4 T-cells, read-out: % CD69+ (CD4)
# [8] = CD3/CD28 stimulation, CD8 T-cells, read-out: % CD69+ (CD8)
# [9] = CD3 alone stimulation, CD4 T-cells, read-out: % CD69+ (CD4)
# [10] = CD3 alone stimulation, CD8 T-cells, read-out: % CD69+ (CD8)
# [11] = CD3/CD28 stimulation, read-out: GM-CSF secretion
# [12] = CD3/CD28 stimulation, read-out: IFNγ secretion
# [13] = CD3/CD28 stimulation, read-out: TNFα secretion
# [14] = CD3 alone stimulation, read-out: GM-CSF secretion
# [15] = CD3 alone stimulation, read-out: IFNγ secretion
# [16] = CD3 alone stimulation, read-out: TNFα secretion
compound,measurement,setting,value
"Cn1cnnc1CC1(c2cccc(N3Cc4c(cc(CN5CCC6(CC6)C5)cc4C(F)(F)F)C3=O)c2)COC1 [Compound 520, 6-((5-azaspiro[2.4]heptan-5-yl)methyl)-2-(3-(3-((4-methyl-4H-1,2,4-triazol-3-yl)methyl)oxetan-3-yl)phenyl)-4-(trifluoromethyl)isoindolin-1-one]",fold induction at 1.11 µM,[1]; [4],> 4
same,fold induction at 10 µM,[1]; [4],> 4
same,fold induction at 1.11 µM,[1]; [5],> 4
same,fold induction at 10 µM,[1]; [5],> 4
same,fold induction at 1.11 µM,[1]; [6],> 4
same,fold induction at 10 µM,[1]; [6],> 4
same,fold induction at 1.11 µM,[2]; [7],> 1.6
same,fold induction at 10 µM,[2]; [7],> 1.6
same,fold induction at 1.11 µM,[2]; [8],1.2 to 1.4
same,fold induction at 10 µM,[2]; [8],1.2 to 1.4
same,fold induction at 1.11 µM,[2]; [9],> 1.6
same,fold induction at 10 µM,[2]; [9],> 1.6
same,fold induction at 1.11 µM,[2]; [10],1.4 to 1.6
same,fold induction at 10 µM,[2]; [10],1.4 to 1.6
same,fold induction at 1.11 µM,[3]; [11],> 4
same,fold induction at 1.11 µM,[3]; [12],> 4
same,fold induction at 1.11 µM,[3]; [13],2.01 to 4
same,fold induction at 10 µM,[3]; [11],> 4
same,fold induction at 10 µM,[3]; [12],> 4
same,fold induction at 10 µM,[3]; [13],> 4
same,fold induction at 1.11 µM,[3]; [14],2.01 to 4
same,fold induction at 1.11 µM,[3]; [15],> 4
same,fold induction at 1.11 µM,[3]; [16],2.01 to 4
same,fold induction at 10 µM,[3]; [14],> 4
same,fold induction at 10 µM,[3]; [15],> 4
same,fold induction at 10 µM,[3]; [16],2.01 to 4
